{
  "source": "paper PMC5218480",
  "about": "(PLoS ONE, 2017)",
  "system": "MV-4-11 cells",
  "test": "Gene expression microarray analysis (Affymetrix PrimeView) and GSEA",
  "assay_type": "cell-based, human",
  "set-up": "RFU PODN (11730768_x_at) / Fold change /veh PODN (11730768_x_at) / RFU LINC00158 (11744669_a_at) / Fold change /veh LINC00158 (11744669_a_at) / RFU DUSP10 (11751237_a_at) / Fold change /veh DUSP10 (11751237_a_at) / RFU ID3 (11757404_x_at) / Fold change /veh ID3 (11757404_x_at) / RFU PLEKHG5 (11737974_s_at) / Fold change /veh PLEKHG5 (11737974_s_at) / RFU LRRC4B (11730491_at) / Fold change /veh LRRC4B (11730491_at) / RFU GIMAP4 (11747438_a_at) / Fold change /veh GIMAP4 (11747438_a_at) / RFU KRT8 (11758183_x_at) / Fold change /veh KRT8 (11758183_x_at) / RFU CNN1 (11734310_a_at) / Fold change /veh CNN1 (11734310_a_at) / RFU VPS37D (11726825_at) / Fold change /veh VPS37D (11726825_at) / RFU C10orf10 (11716522_x_at) / Fold change /veh C10orf10 (11716522_x_at) / RFU KIR2DL2 /// KIR2DL4 /// KIR2DL5A /// KIR2DL5B /// KIR2DS1 /// KIR2DS2 /// KIR2DS3 /// KIR2DS4 /// KIR3DL3 /// KIR3DL3 /// KIR3DS1 (11738374_at) / Fold change /veh KIR2DL2 /// KIR2DL4 /// KIR2DL5A /// KIR2DL5B /// KIR2DS1 /// KIR2DS2 /// KIR2DS3 /// KIR2DS4 /// KIR3DL3 /// KIR3DL3 /// KIR3DS1 (11738374_at) / RFU C1QL1 (11718748_at) / Fold change /veh C1QL1 (11718748_at) / RFU TMPRSS4 (11747572_a_at) / Fold change /veh TMPRSS4 (11747572_a_at) / RFU HAMP (11756126_x_at) / Fold change /veh HAMP (11756126_x_at) / RFU RNFT2 (11725882_a_at) / Fold change /veh RNFT2 (11725882_a_at) / RFU NR4A2 (11747474_a_at) / Fold change /veh NR4A2 (11747474_a_at) / RFU ABCC12 (11746883_a_at) / Fold change /veh ABCC12 (11746883_a_at) / RFU TMEM136 (11760407_x_at) / Fold change /veh TMEM136 (11760407_x_at) / RFU CLDN22 /// WWC2 (11732394_at) / Fold change /veh CLDN22 /// WWC2 (11732394_at) / RFU HLA-DPB1 (11760878_x_at) / Fold change /veh HLA-DPB1 (11760878_x_at) / RFU SPINT1 (11716480_a_at) / Fold change /veh SPINT1 (11716480_a_at) / RFU GAP43 (11754022_s_at) / Fold change /veh GAP43 (11754022_s_at) / RFU A4GNT (11735810_at) / Fold change /veh A4GNT (11735810_at) / RFU PRB3 (11715151_x_at) / Fold change /veh PRB3 (11715151_x_at) / RFU TUBB4B (11761932_at) / Fold change /veh TUBB4B (11761932_at) / RFU CAPN14 (11732068_a_at) / Fold change /veh CAPN14 (11732068_a_at) / RFU TMCC2 (11721928_a_at) / Fold change /veh TMCC2 (11721928_a_at) / RFU IRGQ (11745062_a_at) / Fold change /veh IRGQ (11745062_a_at) / RFU FAM174B (11720279_a_at) / Fold change /veh FAM174B (11720279_a_at) / RFU TMPRSS4 (11748680_a_at) / Fold change /veh TMPRSS4 (11748680_a_at) / RFU FAM212B (11763350_a_at) / Fold change /veh FAM212B (11763350_a_at) / RFU PLEKHG5 (11743358_a_at) / Fold change /veh PLEKHG5 (11743358_a_at) / RFU ZSCAN30 (11745921_a_at) / Fold change /veh ZSCAN30 (11745921_a_at) / RFU CMKLR1 (11741424_a_at) / Fold change /veh CMKLR1 (11741424_a_at) / RFU LOC101060620 /// MAPK8IP1 (11723275_at) / Fold change /veh LOC101060620 /// MAPK8IP1 (11723275_at) / RFU SPTSSB (11747773_x_at) / Fold change /veh SPTSSB (11747773_x_at) / RFU PRSS12 (11739890_at) / Fold change /veh PRSS12 (11739890_at) / RFU BIN1 (11741810_x_at) / Fold change /veh BIN1 (11741810_x_at) / RFU WNT11 (11732464_a_at) / Fold change /veh WNT11 (11732464_a_at) / RFU C10orf10 (11716521_a_at) / Fold change /veh C10orf10 (11716521_a_at) / RFU C5orf56 (11738089_at) / Fold change /veh C5orf56 (11738089_at) / RFU CYB561 (11721691_x_at) / Fold change /veh CYB561 (11721691_x_at) / RFU ANKRD19P (11752326_a_at) / Fold change /veh ANKRD19P (11752326_a_at) / RFU OR2T12 /// OR2T33 /// OR2T8 (11738714_s_at) / Fold change /veh OR2T12 /// OR2T33 /// OR2T8 (11738714_s_at) / RFU VCAN (11748164_a_at) / Fold change /veh VCAN (11748164_a_at) / RFU JSRP1 (11732532_at) / Fold change /veh JSRP1 (11732532_at) / RFU KRTAP10-11 (11738290_x_at) / Fold change /veh KRTAP10-11 (11738290_x_at) / RFU MYO3A (11730013_a_at) / Fold change /veh MYO3A (11730013_a_at) / RFU EBF3 (11725865_a_at) / Fold change /veh EBF3 (11725865_a_at) / RFU CAMK2N1 (11719241_x_at) / Fold change /veh CAMK2N1 (11719241_x_at) / RFU C5orf56 (11738088_a_at) / Fold change /veh C5orf56 (11738088_a_at) / RFU OLFML3 (11715873_a_at) / Fold change /veh OLFML3 (11715873_a_at) / RFU LOC100653217 /// NTM (11731650_a_at) / Fold change /veh LOC100653217 /// NTM (11731650_a_at) / RFU MAPK11 (11762145_a_at) / Fold change /veh MAPK11 (11762145_a_at) / RFU FIZ1 (11724087_x_at) / Fold change /veh FIZ1 (11724087_x_at) / RFU OASL (11726364_x_at) / Fold change /veh OASL (11726364_x_at) / RFU SOX15 (11748057_x_at) / Fold change /veh SOX15 (11748057_x_at) / RFU CD79A (11719716_a_at) / Fold change /veh CD79A (11719716_a_at) / RFU HIST1H1D (11736915_at) / Fold change /veh HIST1H1D (11736915_at) / RFU CASKIN2 (11723855_a_at) / Fold change /veh CASKIN2 (11723855_a_at) / RFU LOC730098 (11760151_x_at) / Fold change /veh LOC730098 (11760151_x_at) / RFU OR4N2 (11742367_at) / Fold change /veh OR4N2 (11742367_at) / RFU PRRT2 (11749266_a_at) / Fold change /veh PRRT2 (11749266_a_at) / RFU SNX32 (11753110_a_at) / Fold change /veh SNX32 (11753110_a_at) / RFU CDHR5 (11726645_a_at) / Fold change /veh CDHR5 (11726645_a_at) / RFU RCAN1 (11760418_a_at) / Fold change /veh RCAN1 (11760418_a_at) / RFU FAM167A (11723789_a_at) / Fold change /veh FAM167A (11723789_a_at) / RFU FAM26E (11764081_at) / Fold change /veh FAM26E (11764081_at) / RFU ISYNA1 (11749810_s_at) / Fold change /veh ISYNA1 (11749810_s_at) / RFU ACY1 (11761880_at) / Fold change /veh ACY1 (11761880_at) / RFU 11764098_at / Fold change /veh 11764098_at / RFU SAMD14 (11745864_x_at) / Fold change /veh SAMD14 (11745864_x_at) / RFU NPB (11741838_a_at) / Fold change /veh NPB (11741838_a_at) / RFU TMPRSS6 (11731388_a_at) / Fold change /veh TMPRSS6 (11731388_a_at) / RFU KRTAP10-2 (11738614_at) / Fold change /veh KRTAP10-2 (11738614_at) / RFU ARHGAP8 /// PRR5-ARHGAP8 (11727945_x_at) / Fold change /veh ARHGAP8 /// PRR5-ARHGAP8 (11727945_x_at) / RFU KRTAP5-7 /// NADSYN1 (11734609_at) / Fold change /veh KRTAP5-7 /// NADSYN1 (11734609_at) / RFU RASL12 (11751679_a_at) / Fold change /veh RASL12 (11751679_a_at) / RFU CDKN2B (11736163_a_at) / Fold change /veh CDKN2B (11736163_a_at) / RFU PRF1 (11729649_at) / Fold change /veh PRF1 (11729649_at) / RFU, ZNF638 /// ZNF638-IT1 / Fold change vs veh, ZNF638 /// ZNF638-IT1 / RFU, PANK3 / Fold change vs veh, PANK3 / RFU, SH3YL1 / Fold change vs veh, SH3YL1 / RFU, ZEB2 / Fold change vs veh, ZEB2 / RFU, NRIP1 / Fold change vs veh, NRIP1 / RFU, PTTG1IP / Fold change vs veh, PTTG1IP / RFU, CAPN2 / Fold change vs veh, CAPN2 / RFU, MED14 / Fold change vs veh, MED14 / RFU, SNORA58 / Fold change vs veh, SNORA58 / RFU, C1orf63 / Fold change vs veh, C1orf63 / RFU, LRRFIP1 / Fold change vs veh, LRRFIP1 / RFU, NDUFAF7 / Fold change vs veh, NDUFAF7 / RFU, SLC12A2 / Fold change vs veh, SLC12A2 / RFU, IBTK / Fold change vs veh, IBTK / RFU, ESF1 / Fold change vs veh, ESF1 / Fold change vs veh, TMEM50B / RFU, TAOK1 / Fold change vs veh, TAOK1 / RFU, ACBD3 / Fold change vs veh, ACBD3 / RFU, TMA16 / Fold change vs veh, TMA16 / RFU, RWDD3 / Fold change vs veh, RWDD3 / RFU, BCAT1 / Fold change vs veh, BCAT1 / RFU, EDEM3 / Fold change vs veh, EDEM3 / RFU, TMEM33 / Fold change vs veh, TMEM33 / RFU, WDR75 / Fold change vs veh, WDR75 / RFU, AHCTF1 / Fold change vs veh, AHCTF1 / RFU, TFRC / Fold change vs veh, TFRC / RFU, ZDHHC17 / Fold change vs veh, ZDHHC17 / RFU, NOM1 / Fold change vs veh, NOM1 / RFU, ARL8B / Fold change vs veh, ARL8B / RFU, ZBTB11 / Fold change vs veh, ZBTB11 / RFU, TAMM41 / Fold change vs veh, TAMM41 / RFU, KIAA1704 /// LOC100996395 / Fold change vs veh, KIAA1704 /// LOC100996395 / RFU, ING1 / Fold change vs veh, ING1 / RFU, TRMT61B / Fold change vs veh, TRMT61B / RFU, FUBP3 / Fold change vs veh, FUBP3 / RFU, TP53 / Fold change vs veh, TP53 / RFU, TNKS2 / Fold change vs veh, TNKS2 / RFU, ZFP14 / Fold change vs veh, ZFP14 / RFU, ACTR2 / Fold change vs veh, ACTR2 / RFU, PPP3R1 / Fold change vs veh, PPP3R1 / RFU, PIK3R1 / Fold change vs veh, PIK3R1 / RFU, HNRNPA1 / Fold change vs veh, HNRNPA1 / RFU, RNF170 / Fold change vs veh, RNF170 / RFU, ZNF28 / Fold change vs veh, ZNF28 / RFU, RNGTT / Fold change vs veh, RNGTT / RFU, OGT / Fold change vs veh, OGT / RFU, BRD1 / Fold change vs veh, BRD1 / RFU, MARS / Fold change vs veh, MARS / RFU, ZNF655 / Fold change vs veh, ZNF655 / RFU, FAHD1 / Fold change vs veh, FAHD1 / RFU, BDP1 / Fold change vs veh, BDP1 / RFU, LRRCC1 / Fold change vs veh, LRRCC1 / RFU, ARID1A / Fold change vs veh, ARID1A / RFU, ZNF146 / Fold change vs veh, ZNF146 / RFU, ZNF330 / Fold change vs veh, ZNF330 / RFU, GPN3 / Fold change vs veh, GPN3 / RFU, C9orf123 / Fold change vs veh, C9orf123 / RFU, N4BP2L2 / Fold change vs veh, N4BP2L2 / RFU, ARFIP1 / Fold change vs veh, ARFIP1 / RFU, FAM179B / Fold change vs veh, FAM179B / RFU, BCL10 / Fold change vs veh, BCL10 / RFU, UHRF1BP1L / Fold change vs veh, UHRF1BP1L / RFU, BET1 / Fold change vs veh, BET1 / RFU, CNOT2 / Fold change vs veh, CNOT2 / RFU, ZNF268 / Fold change vs veh, ZNF268 / Fold change vs veh, ZNF507 / RFU, DGCR2 / Fold change vs veh, DGCR2 / RFU, WDSUB1 / Fold change vs veh, WDSUB1 / Fold change vs veh, HSP90B1 /// MIR3652 / RFU, ADSS / Fold change vs veh, ADSS / RFU, GK / Fold change vs veh, GK / RFU, ZNF148 / Fold change vs veh, ZNF148 / RFU, TAF9 / Fold change vs veh, TAF9 / RFU, SLC1A5 / Fold change vs veh, SLC1A5 / RFU, SLMO2 / Fold change vs veh, SLMO2 / RFU, ABCC4 / Fold change vs veh, ABCC4 / RFU, LOC101060439 /// RAP1B / Fold change vs veh, LOC101060439 /// RAP1B / RFU, RFX7 / Fold change vs veh, RFX7 / RFU, GTPBP10 / Fold change vs veh, GTPBP10 / RFU, CNEP1R1 / Fold change vs veh, CNEP1R1 / RFU, BIVM-ERCC5 /// ERCC5 / Fold change vs veh, BIVM-ERCC5 /// ERCC5 / RFU, ILF3 / Fold change vs veh, ILF3 / RFU 11762660_at / Fold change /veh 11762660_at / RFU VCAN (11757783_s_at) / Fold change /veh VCAN (11757783_s_at) / RFU DDX43 (11728927_at) / Fold change /veh DDX43 (11728927_at) / RFU KRT8 (11758188_x_at) / Fold change /veh KRT8 (11758188_x_at) / RFU NKD1 (11759106_at) / Fold change /veh NKD1 (11759106_at) / RFU SRD5A1 (11742802_a_at) / Fold change /veh SRD5A1 (11742802_a_at) / RFU TPSAB1 /// TPSB2 (11721975_s_at) / Fold change /veh TPSAB1 /// TPSB2 (11721975_s_at) / RFU GSTM3 (11746129_a_at) / Fold change /veh GSTM3 (11746129_a_at) / RFU IL23R (11737362_x_at) / Fold change /veh IL23R (11737362_x_at) / RFU TMEM51 (11727254_a_at) / Fold change /veh TMEM51 (11727254_a_at) / RFU PIWIL2 (11732686_x_at) / Fold change /veh PIWIL2 (11732686_x_at) / RFU ORM1 (11744905_x_at) / Fold change /veh ORM1 (11744905_x_at) / RFU CCDC152 (11743942_at) / Fold change /veh CCDC152 (11743942_at) / RFU ECM1 (11717891_a_at) / Fold change /veh ECM1 (11717891_a_at) / RFU IL23R (11748794_a_at) / Fold change /veh IL23R (11748794_a_at) / RFU TNFAIP8L3 (11732012_x_at) / Fold change /veh TNFAIP8L3 (11732012_x_at) / RFU MBOAT4 (11741988_at) / Fold change /veh MBOAT4 (11741988_at) / RFU 11764193_at / Fold change /veh 11764193_at / RFU TMEM53 (11763286_at) / Fold change /veh TMEM53 (11763286_at) / RFU MAGEB2 (11727129_at) / Fold change /veh MAGEB2 (11727129_at) / RFU TMEM200A (11744735_a_at) / Fold change /veh TMEM200A (11744735_a_at) / RFU CCDC152 (11751479_a_at) / Fold change /veh CCDC152 (11751479_a_at) / RFU FAM211A (11726209_a_at) / Fold change /veh FAM211A (11726209_a_at) / RFU RGS16 (11746705_a_at) / Fold change /veh RGS16 (11746705_a_at) / RFU VCAN (11755009_s_at) / Fold change /veh VCAN (11755009_s_at) / RFU RHOB (11743442_s_at) / Fold change /veh RHOB (11743442_s_at) / RFU RGS16 (11720943_a_at) / Fold change /veh RGS16 (11720943_a_at) / RFU RGS16 (11720944_at) / Fold change /veh RGS16 (11720944_at) / RFU, VPS4B / Fold change vs veh, VPS4B / RFU, CREB1 / Fold change vs veh, CREB1 / RFU, DNAJC13 / Fold change vs veh, DNAJC13 / RFU, GNAQ / Fold change vs veh, GNAQ / RFU, CDK5R1 / Fold change vs veh, CDK5R1 / RFU, ZRANB3 / Fold change vs veh, ZRANB3 / RFU, CUL4A / Fold change vs veh, CUL4A / RFU, CCNY / Fold change vs veh, CCNY / RFU, UFL1 / Fold change vs veh, UFL1 / RFU, COG3 / Fold change vs veh, COG3 / RFU, DIAPH2 / Fold change vs veh, DIAPH2 / RFU, SKA2 / Fold change vs veh, SKA2 / RFU, AFF3 / Fold change vs veh, AFF3 / RFU, LMF1 / Fold change vs veh, LMF1 / RFU, IPO11 / Fold change vs veh, IPO11 / RFU, DFFB / Fold change vs veh, DFFB / RFU, FOXP1 / Fold change vs veh, FOXP1 / RFU, CARD8 / Fold change vs veh, CARD8 / RFU, STRN3 / Fold change vs veh, STRN3 / RFU, ADK / Fold change vs veh, ADK / RFU, RASSF2 / Fold change vs veh, RASSF2 / RFU, WIPF1 / Fold change vs veh, WIPF1 / RFU, LARP1B / Fold change vs veh, LARP1B / RFU, RASA1 / Fold change vs veh, RASA1 / RFU, RB1 / Fold change vs veh, RB1 / RFU, PPFIA1 / Fold change vs veh, PPFIA1 / RFU, MAT2A / Fold change vs veh, MAT2A / RFU, CCT5 / Fold change vs veh, CCT5 / RFU, WDR92 / Fold change vs veh, WDR92 / RFU, CUX1 / Fold change vs veh, CUX1 / RFU, TTC7A / Fold change vs veh, TTC7A / RFU, TMEM135 / Fold change vs veh, TMEM135 / RFU, DEPTOR / Fold change vs veh, DEPTOR / RFU, CPM / Fold change vs veh, CPM / RFU, DNAJB6 / Fold change vs veh, DNAJB6 / RFU, CACNA2D3 / Fold change vs veh, CACNA2D3 / RFU, DTX4 / Fold change vs veh, DTX4 / RFU, TFCP2 / Fold change vs veh, TFCP2 / RFU, GMCL1 /// GMCL1P1 / Fold change vs veh, GMCL1 /// GMCL1P1 / RFU, AEBP2 / Fold change vs veh, AEBP2 / RFU, SNHG1 /// SNORD22 /// SNORD25 /// SNORD26 /// SNORD27 /// SNORD28 /// SNORD29 /// SNORD31 / Fold change vs veh, SNHG1 /// SNORD22 /// SNORD25 /// SNORD26 /// SNORD27 /// SNORD28 /// SNORD29 /// SNORD31 / Fold change (Aza/veh), C12orf56 (ProbeSet 11735607_a_at) / Fold change (ACY-1035/veh), C12orf56 (ProbeSet 11735607_a_at) / Fold change (Aza/veh), FGFR1OP (ProbeSet 11751329_s_at) / Fold change (ACY-1035/veh), FGFR1OP (ProbeSet 11751329_s_at) / Fold change (Aza/veh), VPS36 (ProbeSet 11739960_a_at) / Fold change (ACY-1035/veh), VPS36 (ProbeSet 11739960_a_at) / RFU SYPL1 (11715823_x_at) / Fold change /veh SYPL1 (11715823_x_at) / RFU IGFBP7 (11715501_s_at) / Fold change /veh IGFBP7 (11715501_s_at) / RFU REEP3 (11722064_at) / Fold change /veh REEP3 (11722064_at) / RFU IGLL1 (11728026_x_at) / Fold change /veh IGLL1 (11728026_x_at): dose or concentration left out as unconfirmed",
  "details": "ProbeSet 11743510_at; LIST D",
  "data": [
    {"compound": "Nc1ccc(-c2cccs2)cc1NC(=O)c1ccc2c(c1)cc(C1CC1)n2CCN1CCOCC1", "note": "[ACY-1035]", "values": [
      {"measurement": "RFU, UFL1", "value": 325.04, "unit": "RFU"}
    ]}
  ]
}
